Source: ChEMBL document CHEMBL1156272, “Discovery and SAR of novel pyrazole-based thioethers as cathepsin S inhibitors. Part 2: Modification of P3, P4, and P5 regions” (Bioorg Med Chem Lett, 2010)

Tests used:
[1] = biological target: T1, Cathepsin S (Homo sapiens, UniProt P25774); test: Inhibition of cathepsin S in human JY cells assessed as accumulation of invariant chain p10 fragment after 24 hrs by Western blot analysis; type: cell-based
[2] = biological target: T1, Cathepsin S; test: Inhibition of human cathepsin S by ADAM-28 substrate-based fluorescence assay
[3] = biological target: Voltage-gated inwardly rectifying potassium channel KCNH2 (Homo sapiens, UniProt Q12809); test: Inhibition of human ERG by astemizole binding assay
Sequence of Voltage-gated inwardly rectifying potassium channel KCNH2 (Q12809 whole entry): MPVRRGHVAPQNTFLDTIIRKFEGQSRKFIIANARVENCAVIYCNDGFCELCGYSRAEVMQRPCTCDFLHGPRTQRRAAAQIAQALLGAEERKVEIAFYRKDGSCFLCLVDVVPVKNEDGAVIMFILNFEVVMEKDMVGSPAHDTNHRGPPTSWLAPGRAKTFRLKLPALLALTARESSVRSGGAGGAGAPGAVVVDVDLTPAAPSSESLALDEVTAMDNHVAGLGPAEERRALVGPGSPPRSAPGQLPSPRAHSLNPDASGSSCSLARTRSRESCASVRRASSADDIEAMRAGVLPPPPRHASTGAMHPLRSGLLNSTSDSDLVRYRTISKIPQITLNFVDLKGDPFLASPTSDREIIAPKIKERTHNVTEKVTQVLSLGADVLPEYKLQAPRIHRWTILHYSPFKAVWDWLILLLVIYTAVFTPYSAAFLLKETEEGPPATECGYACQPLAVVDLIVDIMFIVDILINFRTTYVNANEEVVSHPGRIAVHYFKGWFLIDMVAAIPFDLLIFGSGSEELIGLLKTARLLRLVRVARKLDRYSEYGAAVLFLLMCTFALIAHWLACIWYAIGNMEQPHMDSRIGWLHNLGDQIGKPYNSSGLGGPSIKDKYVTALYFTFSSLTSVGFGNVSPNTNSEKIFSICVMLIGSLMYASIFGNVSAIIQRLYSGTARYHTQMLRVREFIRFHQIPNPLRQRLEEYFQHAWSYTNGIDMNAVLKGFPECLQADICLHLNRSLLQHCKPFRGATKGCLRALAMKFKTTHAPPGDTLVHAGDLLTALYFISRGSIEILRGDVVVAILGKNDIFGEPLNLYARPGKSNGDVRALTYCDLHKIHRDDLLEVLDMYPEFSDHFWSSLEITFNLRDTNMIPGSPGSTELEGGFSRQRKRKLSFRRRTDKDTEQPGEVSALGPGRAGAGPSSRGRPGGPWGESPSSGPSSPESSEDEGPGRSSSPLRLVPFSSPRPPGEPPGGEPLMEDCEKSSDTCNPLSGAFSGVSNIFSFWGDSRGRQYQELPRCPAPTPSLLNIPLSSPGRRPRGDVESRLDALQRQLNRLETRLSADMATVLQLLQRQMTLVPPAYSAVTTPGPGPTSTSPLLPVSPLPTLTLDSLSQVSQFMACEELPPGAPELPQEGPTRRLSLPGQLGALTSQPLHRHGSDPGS

T1 sequence (P25774 whole entry, the tested form may be a part): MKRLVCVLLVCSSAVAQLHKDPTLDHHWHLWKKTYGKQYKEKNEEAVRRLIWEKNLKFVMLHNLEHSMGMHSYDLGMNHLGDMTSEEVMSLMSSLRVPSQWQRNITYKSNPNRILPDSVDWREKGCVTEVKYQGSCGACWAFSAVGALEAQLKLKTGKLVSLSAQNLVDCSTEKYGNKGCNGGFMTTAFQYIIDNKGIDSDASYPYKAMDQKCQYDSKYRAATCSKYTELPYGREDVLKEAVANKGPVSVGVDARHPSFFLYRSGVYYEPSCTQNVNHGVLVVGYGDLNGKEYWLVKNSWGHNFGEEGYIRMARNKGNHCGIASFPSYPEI

CS(=O)(=O)N1CCc2c(c(-c3ccc(C(F)(F)F)c(SCCN4CCCC4)c3)nn2CC(O)CN2CCCCC2)C1 (racemic)
IC50 [1]: 458 nM

CS(=O)(=O)N1CCc2c(c(-c3ccc(C(F)(F)F)c(SCCN4CCCCC4)c3)nn2CC(O)CN2CCN(C3CC3)CC2)C1 (racemic)
IC50 [1]: 220 nM

OC(CN1CCCCC1)Cn1nc(-c2ccc(C(F)(F)F)c(SCCN3CCC(F)CC3)c2)c2c1CCNC2 (stereo unspecified)
IC50 [2]: 9600 nM

O=C(c1nc[nH]n1)N1CCc2c(c(-c3ccc(C(F)(F)F)c(SCCN4CCC(F)CC4)c3)nn2C[C@@H](O)CN2CCCCC2)C1
IC50 [2]: 205 nM | IC50 [1]: 320 nM

NC(=O)C(=O)N1CCc2c(c(-c3ccc(C(F)(F)F)c(SCCN4CCC(F)CC4)c3)nn2C[C@@H](O)CN2CCCCC2)C1
IC50 [2]: 70 nM | IC50 [1]: 190 nM

CS(=O)(=O)N1CCc2c(c(-c3ccc(C(F)(F)F)c(SCCN4CCC(F)CC4)c3)nn2CC(O)CN2CCCCC2)C1 (racemic)
IC50 [1]: 493 nM

CS(=O)(=O)N1CCc2c(c(-c3ccc(C(F)(F)F)c(SCCN4CCCCC4)c3)nn2CC(O)CN2CCC(C(=O)N3CCCC3)CC2)C1 (racemic)
IC50 [1]: 96 nM

CS(=O)(=O)N1CCc2c(c(-c3ccc(C(F)(F)F)c(SCCN4CCCCC4)c3)nn2CC(O)CN2CCC(N3CCCC3=O)CC2)C1 (racemic)
IC50 [1]: 152 nM

CS(=O)(=O)N1CCc2c(c(-c3ccc(C(F)(F)F)c(SCCN)c3)nn2CC(O)CN2CCCCC2)C1 (racemic)
IC50 [2]: 1130 nM

CS(=O)(=O)N1CCc2c(c(-c3ccc(C(F)(F)F)c(SCCN4CCC(F)CC4)c3)nn2C[C@H](O)CN2CCCCC2)C1
IC50 [2]: 395 nM | IC50 [1]: 810 nM

CS(=O)(=O)N1CCc2c(c(-c3ccc(C(F)(F)F)c(SCCN4CCCCC4)c3)nn2CC(O)CN2CCC(c3ccccc3C#N)CC2)C1 (racemic)
IC50 [2]: 10 nM | IC50 [1]: 160 nM | inhibition (INH) [3]: Active

CS(=O)(=O)N1CCc2c(c(-c3ccc(C(F)(F)F)c(SCCN4CCCCC4)c3)nn2CC(O)CN2CCOCC2)C1 (racemic)
IC50 [2]: 325 nM | IC50 [1]: 889 nM

CS(=O)(=O)N1CCc2c(c(-c3ccc(C(F)(F)F)c(SCCN4CCCCC4)c3)nn2CC(O)CN2CCC(C3CCCC3)CC2)C1 (racemic)
IC50 [2]: 218 nM | IC50 [1]: 81 nM

CS(=O)(=O)N1CCc2c(c(-c3ccc(C(F)(F)F)c(SCCN4CCCCC4)c3)nn2CC(O)CN2CCCCC2)C1 (racemic)
IC50 [2]: 204 nM | IC50 [1]: 335 nM

O=C(CO)N1CCc2c(c(-c3ccc(C(F)(F)F)c(SCCN4CCC(F)CC4)c3)nn2C[C@@H](O)CN2CCCCC2)C1
IC50 [2]: 235 nM

CCCNCC(O)Cn1nc(-c2ccc(C(F)(F)F)c(SCCN3CCCCC3)c2)c2c1CCN(S(C)(=O)=O)C2 (racemic)
IC50 [2]: 595 nM

NC(=O)N1CCc2c(c(-c3ccc(C(F)(F)F)c(SCCN4CCC(F)CC4)c3)nn2C[C@@H](O)CN2CCCCC2)C1
IC50 [2]: 235 nM

CS(=O)(=O)N1CCc2c(c(-c3ccc(C(F)(F)F)c(SCCN4CCC(F)CC4)c3)nn2C[C@@H](O)CN2CCCCC2)C1
IC50 [2]: 58 nM | IC50 [1]: 120 nM

O=C(c1cccs1)N1CCc2c(c(-c3ccc(C(F)(F)F)c(SCCN4CCC(F)CC4)c3)nn2C[C@@H](O)CN2CCCCC2)C1
IC50 [2]: 355 nM

CC(O)C(=O)N1CCc2c(c(-c3ccc(C(F)(F)F)c(SCCN4CCC(F)CC4)c3)nn2C[C@@H](O)CN2CCCCC2)C1 (stereo partly specified)
IC50 [2]: 245 nM

CS(=O)(=O)N1CCc2c(c(-c3ccc(C(F)(F)F)c(SCCN4CCCCC4)c3)nn2CC(O)CN2CCCC2)C1 (racemic)
IC50 [2]: 335 nM | IC50 [1]: 401 nM

CS(=O)(=O)N1CCc2c(c(-c3ccc(C(F)(F)F)c(SCCN4CCCCC4)c3)nn2CC(O)CN2CCC(c3ccccn3)CC2)C1 (racemic)
IC50 [1]: 62 nM | inhibition (INH) [3]: Active

CS(=O)(=O)N1CCc2c(c(-c3ccc(C(F)(F)F)c(SCCN4CCOCC4)c3)nn2CC(O)CN2CCCCC2)C1 (racemic)
IC50 [2]: 420 nM | IC50 [1]: 2520 nM

CC(=O)N1CCc2c(c(-c3ccc(C(F)(F)F)c(SCCN4CCC(F)CC4)c3)nn2C[C@@H](O)CN2CCCCC2)C1
IC50 [2]: 385 nM
